Results on one compound are retold here after publication PMC11023993, “Piperine, quercetin, and curcumin identified as promising natural products for topical treatment of cutaneous leishmaniasis” (Parasitology Research, 2024).

For the assay, the system named is L. braziliensis. The conditions noted are these: n = 6. An excerpt:
Golden hamsters (Mesocricetus auratus) were purchased from Charles River Laboratories (Wilmington MA, USA) and bred under specific pathogen-free conditions at the animal facility unit of the Universidad de Antioquia in Medellín, Colombia. Six- to eight-week-old, male, and female hamsters were used for the experiments. Animal experimentation protocols including handling of the animals, sample collection, and euthanasia were done in compliance of the Center for Diseases Control and Prevention guidelines for Safe Work Practices in Human and Animal Medical Diagnostic Laboratories and ARRIVE guidelines (Percie du Sert et al. [2020b]; Khairani et al. [2022]) and approved by the Institutional Ethical Committee for animal experimentation (Act No. 152 of June 01, 2023) (Percie du Sert et al. [2020a]; Khairani et al. [2022]).
Hamsters were anesthetized with ketamine (80 mg/kg, i.p.) and xylazine (15 mg/Kg) before infection and then, ∼1 × 10^8 promastigotes in stationary phase (6 days-old growth) were inoculated into the dorsum dermis (Robledo et al. [2012]). When hamsters developed ulcers larger than 12.5 mm^2, hamsters were randomly distributed into 4 groups (n = 6, each): (1) group treated with QUE (1 mg/day), (2) group treated with PIP (2.5 mg/day), (3) group treated with CUR (1.5 mg/day), (4) group treated with meglumine antimoniate (treatment control group, 200 µg/mL, intralesional). No vehicle control group was included in the present study because castor oil additive is a nonionic surfactant commonly used as an excipient in pharmaceutical formulations, particularly in solubilizing poorly water-soluble drugs. It is widely used as an ingredient in cosmetics for its conditioning properties, based on occlusive action, reducing water loss, and having a nourishing effect on the skin, hair, and nails (Marwat et al. [2017]; Khairani et al. [2022]).
Hamsters were treated daily with 40 µL of the corresponding formulation for 2 weeks, applying it directly over the lesion, while hamsters treated with meglumine antimoniate received treatment three times per week for 4 weeks. Lesion area was measured every week for 90 days with an electronic digital caliper. The body weight gain or loss was supervised every 2 weeks during the study. At the end of the study, hamsters were euthanized with an i.p. injection of ketamine (600 mg/kg) and xylazine (30 mg/kg). The experiments were carried out under normal laboratory lighting conditions. After necropsy, biopsies from healed and unhealed ulcers were removed and fixed in 10% buffered formalin, processed, and stained with hematoxylin–eosin (H-E) stain for histopathology analysis. The changes were analyzed under a standard optical microscope.

Each structure is given as a SMILES string.

As to `O=c1c(O)c(-c2ccc(O)c(O)c2)oc2cc(O)cc(O)c12` [Quercetin, quercetin], the treatment failures result (topical daily for 15 days) is recorded as “No failures”. For the same compound, for the setting “topical in castor oil daily for 15 days, QUE 1 mg/day, CUR 1.5 mg/day, PIP 2.5 mg/day, followed 90 days”, the “therapeutic response (hamsters cured)” value came out at 100%.
